Measurements reported in article PMC6416395, “B1.12: a novel peptide interacting with the extracellular loop of the EBV oncoprotein LMP1” (Scientific Reports, 2019).
“Also recorded” adds a separate entry of the source. Residues, ends and D or L forms follow the SMILES beside them.

Columns and labels:
[1] = test system: B1 peptide (first extracellular loop of LMP1); test: NMR titration of B1/B1.12 interaction; format: binding, Epstein-Barr virus (EBV); conditions: H2O/D2O (90:10), 500 MHz
Description: The NMR experiments samples were prepared in 500 μL of H2O/D2O (90:10); using 1 mM of B1 peptide and 21 mM of B1.12 peptide. Titration experiment was also performed with varying the B1:B1.12 proportions (1:1; 3:1; 5:1; 7:1; 9:1). The NMR experiments were recorded on a Bruker spectrometer 500 MHz equipped with a TCI cryoprobe. Acquisition was performed with water suppression with excitation sculpting pulse sequence.

[2] = test system: B1 peptide (first extracellular loop of LMP1); test: ITC of B1/B1.12 interaction; format: binding, Epstein-Barr virus (EBV); conditions: 30 °C, NaHCO3 buffer 0.1 M pH 5.7
Description: For ITC, analysis was performed at 30 °C using an isothermal titration calorimeter (VP-ITC, LLC Microcal Inc., Northampton, MA, USA). Peptides were suspended in NaHCO3 buffer (0.1 M, pH 5.7, after 2 hours of sample equilibration) and the reference cell was filled with the same buffer. B1 peptide (0.2 mM) was placed into 250 μL syringe and 1200 μL of B1.12 peptide (0.01 mM) was placed in the titration cell. The peptide solution was injected into the stirred sample cell containing B1.12 peptide in >20 injections (2 μL per injection) by a computer-controlled pump. The injection lasted 10 seconds with an interval of 120 seconds between successive injections. Heat released with each injection was measured (Differential Potential in µCal/sec) by the calorimeter in dynamic correction mode. Control experiments were performed by tittering the B1 peptide into the buffer solution at the same pH and concentrations with and without the B1 peptide, in order to discriminate the interaction process against the dilution of B1 and its possible self-association, respectively.

B1 peptide = test: Competitive inhibition of phage B1.12 binding to B1 peptide; set-up: species or system Epstein-Barr virus (EBV); conditions: B1.12 phage 2 × 10^10 pfu, room temperature 1 hour
Description: Binding of the B1.12 peptide to its target B1 and to HeLa/LMP1 cells was evaluated by a competitive binding assay. […] Then the B1.12 phage (2 × 10^10 pfu) was added to each well and incubated for 1 hour. After washing, the bound phage was detected by the anti-M13 antibody as described previously. For the competition test on HeLa cells expressing or not the viral oncoprotein LMP1, cells were seeded into 96-well plates (10^4 cells/well), washed twice in PBS, and fixed with 4% paraformaldehyde for 30 minutes at room temperature. Synthetic peptides at concentrations of 50, 75, 100 and 200 µM were incubated with the cells at 37 °C for 1 hour and the experiment was carried out as described above. All experiments were done in triplicate and the mean values of OD were used to calculate the rate of competitive inhibition according to the following formula: inhibition ratio = (OD control − OD phage)/OD control × 100, where OD control and OD phage represent the OD450 nm values of phage binding on cells incubated with PBS and with the peptide, respectively.

C666.1 cells = test: MTT cell viability, C666.1; format: cell-based; conditions: increasing concentration to 200 µM, 48 h
Description: Three cell lines were used: C666-1 which is a native EBV-infected NPC-derived cell line constitutively expressing LMP1, HeLa cells transfected with native vector (Gpt) or harboring the cDNA encoding LMP1, and HT-29 which is a human colon cancer cell line All cells were maintained in RPMI medium 1640 supplemented with 5% (V/V) FBS (Gibco), 4 µg/mL Gentamycine and 2 mM L-glutamine at 37 °C in a humidified atmosphere of 5% CO2. These cell lines were kindly provided by Pr P. Busson (IGR-France).
Cells were plated into 96-well plates until 80% confluent and then treated with different concentrations of B1.12 peptide (100, 200, 300 and 400 µM). After 48 hours of incubation, 20 μL MTT (5 mg/mL) were added to each well. After 4 hours, 100 μL dimethyl sulfoxide (DMSO) was added to each well, and absorbance was measured at […] using a Varioskan™ Flash Multimode Reader (Thermofisher Scientific). The percentage of cell viability was calculated using this formula:(OD590 nm of treated cells/OD590 nm of untreated cells) × 100.

pAkt = test: Western blot pAkt in C666.1 cells; format: cell-based; conditions: 100 µM peptide, 24 hours, C666.1, Western blot, n = 4 biological replicates
Description: (§1) Cells were cultured at 80% confluency and then incubated with 100 µM B1.12 peptide for 24 hours. Subsequently, cells were washed twice with cold PBS and scrapped in ice-cold RIPA buffer (50 mM Tris pH 7.4, 5 mM EDTA pH 8.0, 150 mM NaCl, 0.1% SDS, 0.5% NaDOC, 0.5% NP 40) supplemented with 5 mM PMSF. After 30 minutes on ice, cells were sonicated, and cell debris were removed by centrifugation at 15,000 rpm at 4 °C for 15 minutes. Proteins were quantified using the Bradford Protein Assay (Bio-Rad) according to the manufacturer’s specifications. Thirty μg of total proteins were separated on 10% SDS–PAGE and transferred to PVDF membrane (Amersham Hybond-P). The membranes were blocked at 4 °C overnight with PBS 0.1% Tween 20 containing 5 mg/mL skimmed milk, prior to be incubated with pAkt (Biotechne, diluted 1/2500) pRelA536 (Biotechne, diluted 1/1000), and Tubulin (Thermofisher, diluted 1/1000) antibodies for 2 hours at room temperature, followed by incubation with anti-rabbit or anti-mouse conjugated to horseradish peroxidase at room temperature for 1 hour. The target protein band was visualized using the enhanced chemiluminescence detection system (Amersham ECL Prime Western Blotting Detection Reagent) and luminescent bands were visualized using the VERSADOC imaging system. Band densities were assessed by Image-J software.

pNFκb (pRelA536) = test: Western blot pNFκb (pRelA536) in C666.1 cells; format: cell-based; conditions: 100 µM peptide, 24 hours, C666.1, Western blot, n = 4 biological replicates
Description: as §1

A20 (TNFAIP3) = test: RT-qPCR A20 expression in C666.1 cells; format: cell-based; conditions: B1.12-treated versus untreated C666.1, RT-qPCR normalised to GAPDH, n = 3 biological replicates
Excerpt: Total RNA from C666.1 cells treated or not with B1.12 and control peptides was extracted using TRIzol reagent. cDNA was synthetized using the reverse transcription kit (Invitrogen), and served as a template for detecting A20 gene expression by Real-time quantitative PCR using SYBR Premix Ex Taq (Tli RNase H Plus, Takara) and using CFX96 (Biorad). The housekeeping gene GAPDH was used as an internal control to normalize the expression levels of the gene. The primers used for the amplification of the A20 gene are as follows: forward: 5′-[…]-3′, and reverse: 5′-GGCGAAATTGGAACCTGA TTCCAAACTT-3′. Relative quantification of mRNA expression was performed by the comparative 2−ΔΔct method to calculate the difference between amplifications of A20 and GAPDH. […]

**Q.** What does the source list for `CC(C)C[C@H](NC(=O)[C@H](CC(=O)O)NC(=O)[C@H](CC(C)C)NC(=O)[C@@H]1CCCN1C(=O)[C@H](CS)NC(=O)[C@H](C)N)C(=O)N[C@@H](CCCNC(=N)N)C(=O)N[C@@H](CO)C(=O)N1CCC[C@H]1C(=O)N[C@@H](CS)C(=O)NCC(N)=O` [B1.12] (H-ACPLDLRSPCG-NH2; N-terminus and C-terminus assumed)?
**A.** binding to target B1 (NMR) ([1]; 1 mM B1, 21 mM B1.12): bound specifically to its target B1; B1 residues showing chemical shift variation ([1]; B1:B1.12 titration 1:1 to 9:1): Met2, Trp5 and Thr6; also recorded: Met^2, Trp^5 and Thr^6; number of injections after which exothermic binding reaction ceases ([2]; 2 μL injections of B1 0.2 mM into B1.12 0.01 mM): nineteen; binding to target B1 (ITC) ([2]; B1 0.2 mM injected into B1.12 0.01 mM): ITC profile confirmed the binding of the B1.12 peptide to its target B1 peptide; effect on binding of phage B1.12 to target B1 (B1 peptide; increasing peptide concentration, triplicate): the inhibition ratio increased gradually; inhibition ratio (B1 peptide; peptide 400 µM, triplicate mean): approximately 43%; cell viability (in words) (C666.1 cells): gradually decreases with increasing peptide concentration; pAkt expression (pAkt): low in B1.12-treated-C666.1 compared to those in the untreated or treated with control peptide; also recorded: decreased in B1.12-treated-C666.1 compared to those in the untreated or treated with control peptide more markedly for pAkt; pNFκb (pRelA536) expression (pNFκb (pRelA536)): a weak change; also recorded: decreased in B1.12-treated-C666.1 compared to those in the untreated or treated with control peptide; A20 expression level (A20 (TNFAIP3)): the expression of A20 decreased compared to untreated cells; also recorded: the A20 level decreased in the C666.1 cells after B1.12 treatment
